Results from ChEMBL document CHEMBL2069174, “Novel 2-methoxyacylhydrazones as potent, selective PDE10A inhibitors with activity in animal models of schizophrenia” (Bioorg Med Chem Lett, 2012).

How the values were obtained:
[1] = (§1) Ratio of drug level in brain to plasma in mouse; assay type: ADME, organism-based; conditions: brain and plasma, read-out: BPR
Mus musculus = experiment: Oral bioavailability in mouse; assay type: ADME, organism-based; conditions: in vivo
Nucleic Acid = experiment: as §1; assay type: ADME, organism-based; conditions: brain
[2] = Metabolic stability of the compound in simulated gastric fluid; assay type: physicochemical; conditions: simulated gi fluid

Kp [1] | F (Mus musculus) [%] | BPR (Nucleic Acid) | Stability [2] | Compound
0.27 | 91 |  |  | COc1cc(/C=N/NC(=O)C(OC)c2ccc(N3CCOCC3)cc2)cc(OC)c1Br (single isomer, unassigned; enantiomer 1)
 | 48 | 0.39 |  | COc1cc(/C=N/NC(=O)C(OC)c2ccc(-n3cccn3)cc2)cc(OC)c1Br (racemic)
 | 63 | 0.37 | Stable | COc1cc(/C=N/NC(=O)C(OC)c2ccc(N3CCOCC3)cc2)cc(OC)c1Br (racemic)
 | 92 | 0.12 | Stable | COc1cc(/C=N/NC(=O)C(OC)c2ccc(-n3cccn3)cc2)cc(OC)c1Br (stereo in doubt; 61)
